This note sets out measurements from ChEMBL document CHEMBL1201862, “PubChem BioAssay data set” (2004).

Some test systems named below: COLO 205; CAKI-1; NCI-H23; HCT-116; NCI-H460; UACC-257; UO-31; HCT-15; A498; SK-MEL-5; ACHN; HOP-92; KM12; RPMI-8226; SF-268; NCI-H226.
Holding throughout (experiment): inhibition of tumour cell growth, NCI panel, 48 h

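Assay format: 96-well plates, 48-hour exposure. The concentration for 50% growth inhibition is given as GI50.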 Active and inactive are the calls of the source. Cut-off read from the data, not from the text of the source: active = GI50 up to about 1.1 µM and inactive = higher.

Regarding `COC(=O)/C(C)=C/[N+](=O)[O-]`, the GI50 was 4.67 µM (inactive) in the assay on COLO 205; 2.57 µM (inactive) with CAKI-1; 19.8 µM (inactive) with NCI-H23; 8.04 µM (inactive) in the assay with HCT-116; 22.2 µM (inactive) with NCI-H460; 15.8 µM (inactive) with UACC-257. The GI50 in the assay with UO-31 is 18.9 µM (inactive); in the assay with HCT-15, 13.5 µM; in the assay with A498, 23.3 µM (inactive); in the assay on SK-MEL-5 it was 23 µM (inactive); with ACHN, 19.5 µM (inactive); in the assay with HOP-92, 9.53 µM (inactive). Besides, the figures for the GI50 with KM12, in the assay on RPMI-8226 and with SF-268 were 18.5 µM (inactive), 2.77 µM (inactive) and 23.1 µM (inactive), respectively.

`O=C1C=C(Nc2ccc(Cl)cc2C(=O)c2ccccc2)c2ccccc2C1=O`: the GI50 in the assay on COLO 205, in the assay on CAKI-1, in the assay with NCI-H23, in the assay on HCT-116, in the assay on NCI-H460 and in the assay on UACC-257 was > 100 µM (inactive) in each case. For the same compound, the GI50 with UO-31 is > 100 µM (inactive); with HCT-15 it was more than 100 µM; in the assay with A498, > 100 µM (inactive); with SK-MEL-5, > 100 µM (inactive); with ACHN it was > 100 µM (inactive); with KM12, > 100 µM (inactive). The GI50 with NCI-H226 and with SF-268 was > 100 µM (inactive) in each case.

For the compound `O=C(CCC(=O)Nc1cccc(Cl)c1)CC(=O)c1ccc(Cl)cc1`, the GI50 in the assay on COLO 205, with CAKI-1, in the assay with NCI-H23, with HCT-116, in the assay with NCI-H460 and with UACC-257 was > 100 µM (inactive) throughout. Besides, the GI50 is > 100 µM (inactive) in the assay with UO-31; more than 100 µM in the assay on HCT-15; > 100 µM (inactive) in the assay with ACHN; > 100 µM (inactive) in the assay with HOP-92; > 100 µM (inactive) in the assay with KM12; > 100 µM (inactive) in the assay on NCI-H226. Also, the GI50 with RPMI-8226 and in the assay on SF-268 was > 100 µM (inactive) each time.

Consider `O=C1CC2CC=C[C@H]3c4cc5c(cc4C(=O)N1C23)OCO5` (some centres not stated), for which the GI50 with COLO 205, with NCI-H23, in the assay with HCT-116, in the assay with NCI-H460, in the assay with UACC-257 and in the assay with UO-31 was > 50 µM (inactive) throughout. For the same compound, the GI50 was more than 50 µM with HCT-15; > 50 µM (inactive) in the assay with ACHN; > 50 µM (inactive) in the assay on KM12; > 50 µM (inactive) in the assay with NCI-H226; > 50 µM (inactive) in the assay on RPMI-8226; > 50 µM (inactive) with SF-268.

In the case of `O=C(N/N=C/c1cc(Cl)cc(Cl)c1O)c1ccncc1`, the GI50 with COLO 205 is > 100 µM (inactive); in the assay on NCI-H23 it was 78.9 µM (inactive); with HCT-116 it was > 100 µM (inactive); in the assay with NCI-H460 it was 39 µM (inactive); in the assay with UACC-257 it was > 100 µM (inactive); in the assay with UO-31 it was 71.1 µM (inactive). Moreover, the GI50 is 29.7 µM in the assay on HCT-15; > 100 µM (inactive) in the assay on A498; 81.3 µM (inactive) with SK-MEL-5; 68.9 µM (inactive) with ACHN; > 100 µM (inactive) in the assay on KM12; > 100 µM (inactive) in the assay with NCI-H226. The GI50 with RPMI-8226 and in the assay on SF-268 was > 100 µM (inactive) in each case.

For `O=c1ccc2ccccc2c2ccccc12`, the GI50 was 4.6 µM (inactive) with COLO 205; 2.81 µM (inactive) in the assay with CAKI-1; 2.83 µM (inactive) in the assay on NCI-H23; 3.7 µM (inactive) in the assay on HCT-116; 3.98 µM (inactive) with NCI-H460; 4.82 µM (inactive) with UACC-257. The GI50 is 3.81 µM (inactive) with UO-31; 1.87 µM in the assay with HCT-15; 22.7 µM (inactive) in the assay on A498; 2.9 µM (inactive) in the assay with SK-MEL-5; 3.97 µM (inactive) with ACHN; 2.58 µM (inactive) in the assay with KM12. The GI50 in the assay on NCI-H226 was 4.27 µM (inactive); with RPMI-8226, 2.23 µM (inactive); in the assay on SF-268, 2.79 µM (inactive).

In the case of `Cc1cccc(NC(=O)C(=O)Cc2nc3ccccc3nc2O)c1C`, the GI50 in the assay on COLO 205, with CAKI-1, in the assay with NCI-H23, in the assay with HCT-116, in the assay with NCI-H460 and with UACC-257 was > 100 µM (inactive) in each case. For the same compound, the GI50 in the assay on UO-31 is > 100 µM (inactive); with HCT-15, more than 100 µM; with A498, > 100 µM (inactive); in the assay on SK-MEL-5, > 100 µM (inactive); with ACHN, > 100 µM (inactive); in the assay with HOP-92 it was > 100 µM (inactive). Further, the GI50 in the assay with KM12, in the assay with NCI-H226 and in the assay on SF-268 was > 100 µM (inactive) throughout.

Regarding `Cc1ccc2c(c1)CN1c3ccc(C)cc3CN2C1c1ccccc1O`, the GI50 in the assay on COLO 205 was 78.7 µM (inactive); with CAKI-1, > 100 µM (inactive); in the assay with NCI-H23 it was 27.3 µM (inactive); in the assay with HCT-116, 18.7 µM (inactive); in the assay on NCI-H460, 33.9 µM (inactive); with UO-31, 24.9 µM (inactive). Moreover, the GI50 in the assay with HCT-15 is 23.6 µM; with SK-MEL-5, 13.7 µM (inactive); in the assay with ACHN, 40.3 µM (inactive); with HOP-92, 15.2 µM (inactive); in the assay on KM12, 43.3 µM (inactive); in the assay on NCI-H226, 49.5 µM (inactive). The GI50 in the assay on RPMI-8226 was 19.5 µM (inactive); with SF-268 it was 81.7 µM (inactive).

Regarding `O=c1[nH]c(=O)n(C2CC(O)C(CO)O2)cc1C#Cc1ccc(C(F)(F)F)cc1` (configuration not stated), the GI50 in the assay on COLO 205, in the assay with NCI-H23, in the assay with HCT-116, in the assay on NCI-H460, in the assay on UACC-257 and in the assay with UO-31 was > 100 µM (inactive) in each case. Besides, the GI50 was more than 100 µM with HCT-15; > 100 µM (inactive) in the assay on SK-MEL-5; > 100 µM (inactive) in the assay on ACHN; 23.9 µM (inactive) with HOP-92; > 100 µM (inactive) in the assay on KM12; > 100 µM (inactive) in the assay with NCI-H226. Moreover, the GI50 in the assay on RPMI-8226 and in the assay with SF-268 was > 100 µM (inactive) throughout.

As to `Nc1nc(N)c(-c2ccccc2)c(C(=O)Nc2ccc(Cl)c(Cl)c2)n1`, the GI50 in the assay on CAKI-1, with NCI-H23, with HCT-116, in the assay with NCI-H460, with UACC-257 and in the assay with UO-31 was > 100 µM (inactive) in each case. In addition, the GI50 is more than 100 µM in the assay with HCT-15; > 100 µM (inactive) in the assay on A498; > 100 µM (inactive) in the assay on SK-MEL-5; > 100 µM (inactive) in the assay with ACHN; > 100 µM (inactive) in the assay with HOP-92; > 100 µM (inactive) in the assay on KM12. The GI50 was > 100 µM (inactive) in the assay with NCI-H226, 46.8 µM (inactive) in the assay on RPMI-8226 and > 100 µM (inactive) in the assay on SF-268.
